The record followed here is ChEMBL document CHEMBL2424579, “Quinazolin-4-one derivatives as selective histone deacetylase-6 inhibitors for the treatment of Alzheimer's disease” (J Med Chem, 2013).

Histone deacetylase 2, sequence (Q92769 whole entry): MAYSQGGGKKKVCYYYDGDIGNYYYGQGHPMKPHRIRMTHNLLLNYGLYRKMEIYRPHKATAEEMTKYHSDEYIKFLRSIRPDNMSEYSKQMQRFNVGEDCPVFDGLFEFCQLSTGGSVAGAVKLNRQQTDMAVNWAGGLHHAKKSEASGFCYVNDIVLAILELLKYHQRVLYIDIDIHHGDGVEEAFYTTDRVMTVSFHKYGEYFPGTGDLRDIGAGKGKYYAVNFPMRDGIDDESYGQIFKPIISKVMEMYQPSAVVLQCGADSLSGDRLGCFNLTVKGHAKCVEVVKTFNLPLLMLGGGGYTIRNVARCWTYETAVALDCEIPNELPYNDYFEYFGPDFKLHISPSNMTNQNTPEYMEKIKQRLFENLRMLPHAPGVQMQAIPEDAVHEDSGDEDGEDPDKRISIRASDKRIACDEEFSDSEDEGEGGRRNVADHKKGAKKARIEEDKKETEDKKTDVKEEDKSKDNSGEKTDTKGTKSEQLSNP
Histone deacetylase 1, sequence (Q13547 whole entry): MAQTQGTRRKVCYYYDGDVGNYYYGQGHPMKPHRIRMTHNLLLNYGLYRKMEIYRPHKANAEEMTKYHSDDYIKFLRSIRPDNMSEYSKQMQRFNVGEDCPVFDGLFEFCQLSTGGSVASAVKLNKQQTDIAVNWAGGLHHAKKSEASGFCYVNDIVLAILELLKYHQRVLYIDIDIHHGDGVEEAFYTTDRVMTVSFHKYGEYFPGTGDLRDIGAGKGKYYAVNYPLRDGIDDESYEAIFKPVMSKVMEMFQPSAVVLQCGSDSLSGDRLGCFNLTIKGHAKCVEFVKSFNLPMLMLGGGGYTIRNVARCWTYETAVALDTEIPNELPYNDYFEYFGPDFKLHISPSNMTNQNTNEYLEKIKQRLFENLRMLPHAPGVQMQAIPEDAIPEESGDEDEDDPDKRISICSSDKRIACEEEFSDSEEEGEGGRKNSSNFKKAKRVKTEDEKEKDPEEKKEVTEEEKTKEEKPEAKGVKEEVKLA

The first series has as its target Histone deacetylase 1 (Homo sapiens, UniProt Q13547). Briefly: Inhibition of human recombinant HDAC1 expressed in baculovirus/sf9 cells using RHKKAc as substrate.
Settings: not given
As a reminder, the IC50 is the concentration that gives 50% inhibition. As for `Cc1nc2c(/C=C/C(=O)NO)cccc2c(=O)n1-c1ccccc1`, the concentration for half-maximal inhibition (IC50) is 48.5 µM.
As for `Cc1nc2cc(/C=C/C(=O)NO)ccc2c(=O)n1CCc1c[nH]c2ccccc12`, the IC50 was 0.758 µM.

The target of the next series is T1, Histone deacetylase 8 (Homo sapiens, UniProt Q9BY41).
T1 sequence (Q9BY41 whole entry): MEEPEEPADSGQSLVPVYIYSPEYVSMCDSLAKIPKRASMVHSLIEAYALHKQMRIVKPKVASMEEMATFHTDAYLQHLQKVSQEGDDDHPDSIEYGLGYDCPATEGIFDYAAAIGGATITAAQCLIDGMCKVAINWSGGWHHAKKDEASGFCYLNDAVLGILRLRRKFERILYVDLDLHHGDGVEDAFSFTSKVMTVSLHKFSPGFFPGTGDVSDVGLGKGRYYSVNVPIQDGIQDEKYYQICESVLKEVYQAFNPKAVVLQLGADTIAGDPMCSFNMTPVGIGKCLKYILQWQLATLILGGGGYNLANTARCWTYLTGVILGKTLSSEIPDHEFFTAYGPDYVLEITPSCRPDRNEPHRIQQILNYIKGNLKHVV
The series is described as follows: Inhibition of human recombinant HDAC8 expressed in baculovirus/sf9 cells using RHKAcKAc as substrate.
Settings: not given
Consider `Cc1nc2c(/C=C/C(=O)NO)cccc2c(=O)n1-c1ccccc1`, for which the IC50 was 0.42 µM.
With `Cc1nc2cc(/C=C/C(=O)NO)ccc2c(=O)n1CCc1c[nH]c2ccccc12`, the IC50 is 1.59 µM.

For a further series, the system named is Vero. Briefly: Cytotoxicity against african green monkey Vero cells at 25 uM. The class given is cell-based. The following applies: chlorocebus sabaeus.
Take `Cc1nc2c(/C=C/C(=O)NO)cccc2c(=O)n1-c1ccccc1`: the Activity entry is “Non-toxic”.
Turning to `Cc1nc2cc(/C=C/C(=O)NO)ccc2c(=O)n1CCc1c[nH]c2ccccc12`, the Activity result was “Non-toxic”.

The target of the next series is T2, Amyloid-beta precursor protein (Homo sapiens, UniProt P05067). The series is described as follows: Inhibition of amyloid beta aggregation (unknown origin) after 4 hrs by thioflavin S assay in presence of Zn2+.
T2 sequence (P05067 whole entry): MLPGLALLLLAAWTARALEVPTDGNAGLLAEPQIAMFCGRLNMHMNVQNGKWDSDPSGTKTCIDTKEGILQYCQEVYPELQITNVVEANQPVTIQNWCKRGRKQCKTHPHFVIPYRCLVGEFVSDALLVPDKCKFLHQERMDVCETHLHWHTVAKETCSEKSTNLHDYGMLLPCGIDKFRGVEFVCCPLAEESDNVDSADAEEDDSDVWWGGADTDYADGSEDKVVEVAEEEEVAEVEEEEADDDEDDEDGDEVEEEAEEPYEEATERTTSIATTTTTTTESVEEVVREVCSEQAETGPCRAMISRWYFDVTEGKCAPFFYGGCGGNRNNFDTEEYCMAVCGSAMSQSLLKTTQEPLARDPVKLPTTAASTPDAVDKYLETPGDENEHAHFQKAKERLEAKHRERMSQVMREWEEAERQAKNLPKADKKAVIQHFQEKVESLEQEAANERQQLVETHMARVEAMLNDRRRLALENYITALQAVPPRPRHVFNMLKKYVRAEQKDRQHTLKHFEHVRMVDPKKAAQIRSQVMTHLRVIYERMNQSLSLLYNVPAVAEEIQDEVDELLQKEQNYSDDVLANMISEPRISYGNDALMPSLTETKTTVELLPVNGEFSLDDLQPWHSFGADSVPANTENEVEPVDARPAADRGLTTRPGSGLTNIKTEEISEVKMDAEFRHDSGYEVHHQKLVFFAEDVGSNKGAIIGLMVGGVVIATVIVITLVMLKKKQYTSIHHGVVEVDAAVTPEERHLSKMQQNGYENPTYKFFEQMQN
Settings: not given
`O=C(O)CN(CCN(CC(=O)O)CC(=O)O)CC(=O)O` [EDETIC ACID]: the IC50 is 7.7 µM.
With `Cc1nc2c(/C=C/C(=O)NO)cccc2c(=O)n1-c1ccccc1`, the IC50 is more than 50 µM.
Regarding `O=C(O)c1cccnc1` [NIACIN], the IC50 was determined as 43.7 µM.

The next series addresses Histone deacetylase 2 (Homo sapiens, UniProt Q92769). The series is described as follows: Inhibition of human recombinant HDAC2 expressed in baculovirus/sf9 cells using RHKKAc as substrate.
Settings: not given
In the case of `Cc1nc2c(/C=C/C(=O)NO)cccc2c(=O)n1-c1ccccc1`, the IC50 was more than 10 µM.
The same measure, in the same setting: under `Cc1nc2cc(/C=C/C(=O)NO)ccc2c(=O)n1CCc1c[nH]c2ccccc12` stands 2.21 µM.

The species entered for a further series is Homo sapiens. The series is described as follows: Selectivity index, ratio of IC50 for human recombinant HDAC1 to IC50 for human recombinant HDAC6.
Settings: not given
Regarding `Cc1nc2c(/C=C/C(=O)NO)cccc2c(=O)n1-c1ccccc1`, the Ratio IC50 stood at 70.
The same measure, in the same setting: under `Cc1nc2cc(/C=C/C(=O)NO)ccc2c(=O)n1CCc1c[nH]c2ccccc12` stands 51.

The next series is filed under the species Homo sapiens. The series is described as follows: Selectivity index, ratio of IC50 for human recombinant HDAC8 to IC50 for human recombinant HDAC6.
Settings: not given
`Cc1nc2c(/C=C/C(=O)NO)cccc2c(=O)n1-c1ccccc1`: the Ratio IC50 was less than 1.
As for `Cc1nc2cc(/C=C/C(=O)NO)ccc2c(=O)n1CCc1c[nH]c2ccccc12`, the Ratio IC50 stood at 106.

A further series has as its target T3, Protein deacetylase HDAC6 (Homo sapiens, UniProt Q9UBN7).
T3 sequence (Q9UBN7 whole entry): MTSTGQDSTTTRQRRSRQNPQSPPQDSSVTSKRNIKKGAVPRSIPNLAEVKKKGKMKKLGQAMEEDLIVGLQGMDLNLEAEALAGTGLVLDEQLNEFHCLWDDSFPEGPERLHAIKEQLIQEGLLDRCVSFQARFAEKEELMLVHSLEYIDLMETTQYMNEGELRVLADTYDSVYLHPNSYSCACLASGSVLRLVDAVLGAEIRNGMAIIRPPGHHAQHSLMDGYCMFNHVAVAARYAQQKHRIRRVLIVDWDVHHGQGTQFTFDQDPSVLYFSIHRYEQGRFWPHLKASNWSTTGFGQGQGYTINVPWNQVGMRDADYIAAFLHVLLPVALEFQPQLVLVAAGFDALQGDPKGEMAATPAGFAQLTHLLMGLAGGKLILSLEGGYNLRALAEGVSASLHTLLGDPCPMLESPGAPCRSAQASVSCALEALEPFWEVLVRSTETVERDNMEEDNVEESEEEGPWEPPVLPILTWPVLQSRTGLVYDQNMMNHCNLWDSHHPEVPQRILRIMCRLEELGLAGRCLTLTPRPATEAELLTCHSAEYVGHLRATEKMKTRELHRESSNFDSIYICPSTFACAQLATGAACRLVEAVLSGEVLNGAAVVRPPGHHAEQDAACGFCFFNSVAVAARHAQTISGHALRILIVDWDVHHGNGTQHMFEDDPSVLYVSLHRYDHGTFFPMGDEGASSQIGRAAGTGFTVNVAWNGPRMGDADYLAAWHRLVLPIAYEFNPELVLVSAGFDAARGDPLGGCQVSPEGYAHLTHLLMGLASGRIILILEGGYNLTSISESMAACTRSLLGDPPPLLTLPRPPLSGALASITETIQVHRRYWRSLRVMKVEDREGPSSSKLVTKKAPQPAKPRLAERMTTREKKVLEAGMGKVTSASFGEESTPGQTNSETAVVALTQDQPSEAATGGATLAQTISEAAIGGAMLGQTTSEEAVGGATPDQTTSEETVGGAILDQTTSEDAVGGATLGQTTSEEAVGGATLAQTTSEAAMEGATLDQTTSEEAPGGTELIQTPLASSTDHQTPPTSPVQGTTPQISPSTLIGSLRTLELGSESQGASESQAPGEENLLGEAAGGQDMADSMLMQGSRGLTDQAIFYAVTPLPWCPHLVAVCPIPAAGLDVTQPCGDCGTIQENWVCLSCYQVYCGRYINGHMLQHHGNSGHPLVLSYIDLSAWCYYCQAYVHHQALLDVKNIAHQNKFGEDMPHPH
Briefly: Inhibition of human recombinant HDAC6 expressed in baculovirus/sf9 cells using RHKKAc as substrate.
Settings: not given
For the compound `Cc1nc2c(/C=C/C(=O)NO)cccc2c(=O)n1-c1ccccc1`, the concentration for half-maximal inhibition (IC50) is 0.69 µM.
For `Cc1nc2cc(/C=C/C(=O)NO)ccc2c(=O)n1CCc1c[nH]c2ccccc12`, the 50% inhibitory concentration (IC50) amounted to 0.015 µM.

In the next series the target is T2, Amyloid-beta precursor protein. The series is described as follows: Inhibition of amyloid beta aggregation (unknown origin) after 4 hrs by thioflavin S assay in absence of Zn2+.
Settings: not given
`O=C(O)CN(CCN(CC(=O)O)CC(=O)O)CC(=O)O` [EDETIC ACID] came in with an IC50 of 28.4 µM.
As to `Cc1nc2c(/C=C/C(=O)NO)cccc2c(=O)n1-c1ccccc1`, the IC50 was more than 50 µM.
`O=C(O)c1cccnc1` [NIACIN] showed an IC50 of 13.1 µM.
`Cc1nc2cc(/C=C/C(=O)NO)ccc2c(=O)n1CCc1c[nH]c2ccccc12` gave an IC50 of more than 50 µM.

Tested on in a further series: not listed separately
The series is described as follows: Cytotoxicity against human SH-SY5Y cells at 25 uM. The class given is cell-based.
Settings: not given
With `Cc1nc2c(/C=C/C(=O)NO)cccc2c(=O)n1-c1ccccc1`, the Activity entry is “Non-toxic”.
On the same count and under the same terms, under `Cc1nc2cc(/C=C/C(=O)NO)ccc2c(=O)n1CCc1c[nH]c2ccccc12` stands “Non-toxic”.

Another series concerns the target T4, Polyamine deacetylase HDAC10 (Homo sapiens, UniProt Q969S8).
T4 sequence (Q969S8 whole entry): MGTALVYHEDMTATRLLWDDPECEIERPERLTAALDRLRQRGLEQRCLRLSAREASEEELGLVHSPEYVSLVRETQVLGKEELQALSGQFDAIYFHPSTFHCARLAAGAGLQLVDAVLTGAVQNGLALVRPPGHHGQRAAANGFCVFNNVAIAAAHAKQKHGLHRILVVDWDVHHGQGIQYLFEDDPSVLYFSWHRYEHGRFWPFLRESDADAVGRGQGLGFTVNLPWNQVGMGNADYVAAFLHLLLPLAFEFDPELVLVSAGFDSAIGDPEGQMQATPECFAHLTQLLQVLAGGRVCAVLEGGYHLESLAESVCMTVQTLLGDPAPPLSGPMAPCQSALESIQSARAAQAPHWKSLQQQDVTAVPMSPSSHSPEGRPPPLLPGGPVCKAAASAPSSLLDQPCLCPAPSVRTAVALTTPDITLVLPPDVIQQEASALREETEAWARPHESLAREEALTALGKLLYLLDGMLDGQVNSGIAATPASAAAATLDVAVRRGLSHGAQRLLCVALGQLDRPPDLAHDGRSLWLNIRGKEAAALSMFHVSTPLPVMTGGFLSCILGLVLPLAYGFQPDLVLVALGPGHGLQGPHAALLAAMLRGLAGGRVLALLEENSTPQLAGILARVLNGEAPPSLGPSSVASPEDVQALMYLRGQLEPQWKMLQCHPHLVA
The series is described as follows: Inhibition of human recombinant HDAC10 expressed in baculovirus/sf9 cells using RHKKAc as substrate.
Settings: not given
For `Cc1nc2c(/C=C/C(=O)NO)cccc2c(=O)n1-c1ccccc1`, the IC50 came to 29.8 µM.

For the next series, the system named is PC-12. Briefly: Cytotoxicity against rat PC12 cells at 25 uM. The format is cell-based. The conditions noted are these: pc-12, 25 µM.
`Cc1nc2c(/C=C/C(=O)NO)cccc2c(=O)n1-c1ccccc1`: the Activity entry is listed as “Non-toxic”.
Same read-out and setting: under `Cc1nc2cc(/C=C/C(=O)NO)ccc2c(=O)n1CCc1c[nH]c2ccccc12` stands “Non-toxic”.

The target in the next series is T5, Histone deacetylase 11 (Homo sapiens, UniProt Q96DB2).
T5 sequence (Q96DB2 whole entry): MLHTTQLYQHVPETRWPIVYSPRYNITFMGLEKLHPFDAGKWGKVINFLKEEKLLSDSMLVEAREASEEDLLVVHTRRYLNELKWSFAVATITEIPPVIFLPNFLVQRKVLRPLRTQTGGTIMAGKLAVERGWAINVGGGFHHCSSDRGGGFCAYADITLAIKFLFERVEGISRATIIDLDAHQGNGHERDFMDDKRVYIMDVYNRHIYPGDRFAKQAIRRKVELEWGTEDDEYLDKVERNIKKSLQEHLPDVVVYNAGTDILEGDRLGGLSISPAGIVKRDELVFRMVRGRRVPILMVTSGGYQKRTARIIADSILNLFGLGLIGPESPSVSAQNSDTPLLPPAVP
The series is described as follows: Inhibition of human recombinant HDAC11 expressed in baculovirus/sf9 cells using RHKKAc as substrate.
Settings: not given
On to `Cc1nc2c(/C=C/C(=O)NO)cccc2c(=O)n1-c1ccccc1`, for which the IC50 was more than 10 µM.
On to `Cc1nc2cc(/C=C/C(=O)NO)ccc2c(=O)n1CCc1c[nH]c2ccccc12`, for which the IC50 stood at 1.21 µM.
